# Test results taken from patent publication US5235061A, “Fungicidal (1H-1,2,4-triazolyl)disilaalkanes” (priority 1991, dated 1993).
# Several values for one entry are separate records, joined by “and”; a condition that tells them apart may be missing. Equal entries are not always repeated.
# Experiments:
# Assay in all cases: In vitro percent disease control (radii of spore growth on agar)
# Type in all cases: cell-based
# Alternaria mali = details: for inhibition of growth at 50 ppm / inhibition of growth at 100 ppm: Alternaria mali, read-out: % controlled, Al.
# Method: (§1) The compounds of this invention were dissolved respectively in acetone in an amount equal to 10% of the final volume and then in purified water at the concentration of 100 ppm and 50 ppm.
# (§2) Each of the solution was mixed with potato-sucrose-agar medium in a 6" petri dish and one of the fungi was spotted at the center of the dish. The dish was incubated in growth room for several days. The percent disease control was derived from the radii of spore growth. The screening tests in vitro condition are well-known to those skilled in the art.
# (§3) The following fungi were used for the screening.
# Rhizopus sp. = details: for inhibition of growth at 50 ppm / inhibition of growth at 100 ppm: Rhizopus, read-out: % controlled, Rhi. sp.
# Method: as §1, §2, §3
# Phytophthora capsisi = details: Phytophthora, read-out: % controlled, Phy ca.
# Method: as §1, §2, §3
# 2) Phy. ca.; Phytophthora capsisi
# Physalospora baccae = details: for inhibition of growth at 50 ppm / inhibition of growth at 100 ppm: read-out: % controlled, Phy ba.
# Method: as §1, §2, §3
# 3) Phy. ba.; Physalospora baccae
# [1] = system: Botryosphaeria dothidea Macrophoma sp.; details: for inhibition of growth at 50 ppm / inhibition of growth at 100 ppm: Botryosphaeria dothidea, read-out: % controlled, Bo.do (Ma.)
# Method: as §1, §2, §3
# 4) Bo.do(Ma); Botryosphaeria dothidea Macrophoma sp.
# Glomerella cingulata = details: for inhibition of growth at 50 ppm / inhibition of growth at 100 ppm: Colletotrichum gloeosporioides, read-out: % controlled, Glo.
# Method: as §1, §2, §3
# 5) Glo.; Glomerella cingulata
# Pyricalaria oryzae = details: for inhibition of growth at 50 ppm: read-out: % controlled, Py. or., 50 ppm; for inhibition of growth at 100 ppm: read-out: % controlled, Py. or., 100 ppm
# Method: as §1, §2, §3
# 6) Py.or.; Pyricalaria oryzae
# Fusarium moniliforme = system: Fusarium moniliforme
# Method: as §1, §2, §3
# 8) Fu.mo.; Fusarium moniliforme
# Botry tris cinerea = details: for inhibition of growth at 50 ppm / inhibition of growth at 100 ppm: read-out: % controlled, Bo ci.
# Method: as §1, §2, §3
# 10) Bo.ci.; Botry tris cinerea
# Rhizoctonia solani = details: for inhibition of growth at 50 ppm / inhibition of growth at 100 ppm: Rhizoctonia solani, read-out: % controlled, Rhy. so.
# Method: as §1, §2, §3
# 7) Rhi.so.; Rhizoctonia solani
Molecule,inhibition of growth at 50 ppm (Alternaria mali; 50 ppm) [%],inhibition of growth at 100 ppm (Alternaria mali; 100 ppm) [%],inhibition of growth at 50 ppm (Rhizopus sp.; 50 ppm) [%],inhibition of growth at 100 ppm (Rhizopus sp.; 100 ppm) [%],inhibition of growth at 50 ppm (Phytophthora capsisi) [%],inhibition of growth at 100 ppm (Phytophthora capsisi) [%],inhibition of growth at 50 ppm (Physalospora baccae; 50 ppm) [%],inhibition of growth at 100 ppm (Physalospora baccae; 100 ppm) [%],inhibition of growth at 50 ppm ([1]; 50 ppm) [%],inhibition of growth at 100 ppm ([1]; 100 ppm) [%],inhibition of growth at 50 ppm (Glomerella cingulata; 50 ppm) [%],inhibition of growth at 100 ppm (Glomerella cingulata; 100 ppm) [%],inhibition of growth at 50 ppm (Pyricalaria oryzae) [%],inhibition of growth at 100 ppm (Pyricalaria oryzae) [%],"% controlled, Fu. mo. (Fusarium moniliforme; 50 ppm)","% controlled, Fu. mo. (Fusarium moniliforme; 100 ppm)",inhibition of growth at 50 ppm (Botry tris cinerea; 50 ppm) [%],inhibition of growth at 100 ppm (Botry tris cinerea; 100 ppm) [%],inhibition of growth at 50 ppm (Rhizoctonia solani; 50 ppm) [%],inhibition of growth at 100 ppm (Rhizoctonia solani; 100 ppm) [%],also measured
C=CC[Si](C[Si](C)(Cn1cncn1)c1ccc(F)cc1)(c1ccccc1)c1ccc(-c2ccccc2)cc1 (stereo not drawn),78,100,100,100,27,50,100,100,100,100,100,100,85,100,100%,100%,86,100,,,
"2-(4-chlorophenyl)-2-(4-fluorophenyl)-2,4-dimethyl-1-(1H-1,2,4-triazol-1-yl)pentane",,,,,,,,,,,,,,,46%,46%,,,,,"% controlled, Al. (Alternaria mali; 50 ppm): 75%; % controlled, Al. (Alternaria mali; 100 ppm): 79%; % controlled, Rhi. sp. (Rhizopus sp.; 50 ppm): 50%; % controlled, Rhi. sp. (Rhizopus sp.; 100 ppm): 50%; % controlled, Phy ba. (Physalospora baccae; 50 ppm): 69%; % controlled, Phy ba. (Physalospora baccae; 100 ppm): 69%; % controlled, Bo.do (Ma.) ([1]; 50 ppm): 79%; % controlled, Bo.do (Ma.) ([1]; 100 ppm): 79%; % controlled, Glo. (Glomerella cingulata; 50 ppm): 87%; % controlled, Glo. (Glomerella cingulata; 100 ppm): 87%; % controlled, Py. or. (Pyricalaria oryzae; 50 ppm): 100%; % controlled, Py. or. (Pyricalaria oryzae; 100 ppm): 100%; % controlled, Rhy. so. (Rhizoctonia solani; 50 ppm): 96%; % controlled, Rhy. so. (Rhizoctonia solani; 100 ppm): 96%; % controlled, Bo ci. (Botry tris cinerea; 50 ppm): 90%; % controlled, Bo ci. (Botry tris cinerea; 100 ppm): 90%"
"C[Si](C)(C)C[Si](Cn1cncn1)(c1ccc(F)cc1)c1ccc(F)cc1 [2,2-bis(4-fluorophenyl)-4,4-dimethyl-2,4-disila-1-(1H-1,2,4-triazol-1-yl)pentane]",32,35,24,29,6,6,20,24,31,37,60,67,57,61,31%,34%,,,60,67,
"C[Si](C)(C[Si](Cn1cncn1)(c1ccc(F)cc1)c1ccc(-c2ccccc2)cc1)c1ccc(F)cc1 (stereo not drawn) [2,4-bis(4-fluorophenyl)-2-(4-phenylphenyl)-4-methyl-2,4-disila-1-(1H-1,2,4-triazol-1-yl)pentane]",,,,,12,14,,,,,87,87,,,46% and 41%,46% and 45%,,,,,"% controlled, Al. (Alternaria mali; 50 ppm): 75% and 38%; % controlled, Al. (Alternaria mali; 100 ppm): 79% and 46%; % controlled, Bo.do (Ma.) ([1]; 50 ppm): 79% and 43%; % controlled, Bo.do (Ma.) ([1]; 100 ppm): 79% and 51%; % controlled, Glo. (Glomerella cingulata; 50 ppm): 76%; % controlled, Glo. (Glomerella cingulata; 100 ppm): 78%; % controlled, Py. or. (Pyricalaria oryzae; 50 ppm): 100% and 50%; % controlled, Py. or. (Pyricalaria oryzae; 100 ppm): 100% and 50%; % controlled, Bo ci. (Botry tris cinerea; 100 ppm): 90% and 47%"
"C[Si](C)(C[Si](C)(Cn1cncn1)c1ccc(F)cc1)c1ccc(-c2ccccc2)cc1 (stereo not drawn) [2-(4-fluorophenyl)-4-(4-phenylphenyl)2,4-dimethyl-2,4-disila-1-(1H-1,2,4-triazol-1-yl)pentane]",75,79,50,50,,,69,69,79,79,87,87,100,100,46%,46%,90,90,96,96,
"C=CC[Si](Cn1cncn1)(C[Si](CC=C)(c1ccc(F)cc1)c1ccc(-c2ccccc2)cc1)c1ccc(F)cc1 (stereo not drawn) [4,6-(4-fluorophenyl)-6-(4-phenylphenyl)-4,6-disila-4-(1H-1,2,4-triazol-1-ylmethyl)-1,8-nonadiene]",62,65,56,56,75,75,60,65,79,79,85,87,100,100,40%,46%,,,90,96,
"C=CC[Si](Cn1cncn1)(C[Si](CC=C)(c1ccccc1)c1ccc(-c2ccccc2)cc1)c1ccc(F)cc1 (stereo not drawn) [4-(4-fluorophenyl)-6-phenyl-6-(4-phenylphenyl)-4,6-disila-4-(1H-1,2,4-triazol-1-ylmethyl)-1,8-nonadiene]",72,78,50,58,70,72,65,69,,,80,86,100,100,61%,65%,90,90,60,90,
"C=CC[Si](C)(Cn1cncn1)C[Si](CC=C)(c1ccc(OCC)cc1)c1ccc(OCC)cc1 (stereo not drawn) [6,6-bis(4-ethoxyphenyl)-4-methyl-4,6-disila-4-(1H-1,2,4-triazol-1-ylmethyl)-1,8-nonadiene]",100,100,80,80,55,60,,,70,72,100,100,100,100,100%,100%,100,100,100,100,
"C=CC[Si](CC=C)(Cn1cncn1)C[Si](CC=C)(c1ccc(F)cc1)c1ccc(-c2ccccc2)cc1 (stereo not drawn) [6-(4-fluorophenyl)-6-(4-phenylphenyl)-4-(2-propenyl)-4,6-disila-4-(1H-1,2,4-triazol-1-ylmethyl)-1,8-nonadiene]",100,100,100,100,40,50,100,100,100,100,100,100,100,100,,,100,100,100,100,
"C=CC[Si](CC=C)(Cn1cncn1)C[Si](CC=C)(CC=C)c1ccccc1 [6-phenyl-4,6-bis(2-propenyl)-4,6-disila-4-(1H-1,2,4-triazol-1-ylmethyl)-1,8-nonadiene]",75,79,50,50,60,70,60,69,65,70,70,87,60,90,46%,46%,80,96,,,
